This note sets out measurements from patent US11000490B2, “Stable aqueous capsaicin injectable formulations and medical uses thereof” (priority 2016, dated 2021).

One series relates to purebred beagle dogs. The following applies: single intra-articular dose via Capsaicin Formulation A.
In series [1] the test system is New Zealand White rabbits. The note with it: single intra-articular dose as Capsaicin Formulation A.
Another series in a line: in vivo. The note with it: both sexes, New Zealand White, rabbit, rabbits, 0.3 mg trans-capsaicin as Capsaicin Formulation A, intra-articular, Day 1, combined males and females. How it is done:
Animals were administered a single dose of test article (i.e., Capsaicin Formulation A, or placebo) on Day 1 via intra-articular injection into the right stifle joint. Dosing was followed by an observation period of 4 weeks. […] Prior to injection of test article, animals were sedated via gas anesthesia with sevoflurane. The gas was administered by designated technicians using a nose cone. Following anesthesia but prior to intra-articular injection, the injection site was prepared aseptically with three or more chlorhexidine scrubs, wiping with sterile water between each scrub. Animals were administered 1 mg/kg of midazolam and 0.6 mg/kg of meloxicam SR subcutaneously prior to gas anesthesia. […] The animal was monitored for pain and discomfort during recovery and was returned to its home cage after complete recovery. […] Additional pain management of animals was monitored by veterinary staff.
Assessment of toxicity was based on mortality, clinical observations (including qualitative food consumption), body weights, physical examinations, and clinical and anatomic pathology. […] Plasma samples were analyzed for capsaicin content. […] Abnormal findings or an indication of normal were recorded. Body weights were recorded twice during the pre-dose phase and on Days 1, 8, 15, and 22 of the dosing phase. […]

`COc1cc(CNC(=O)CCCCC=CC(C)C)ccc1O` [trans-capsaicin, N-[(4-hydroxy-3-methoxyphenyl)methyl]-8-methylnon-6-enamide]: the “no observed adverse effect level (NOAEL)” value with purebred beagle dogs is 1 mg; in series [1], 0.3 mg. For the same compound, in “in vivo”, the highest concentration (Cmax) is 37.9 ng/mL. The AUC(0-t) in “in vivo” (read-out: mean AUC0-24) was 27.8 ng·h/mL.
